From PMC7587356, “High-Throughput Screening for Inhibitors of the SARS-CoV-2 Protease Using a FRET-Biosensor” (Molecules, 2020) come the findings set out here.

This test addresses SARS-CoV-2 3CLpro (Severe acute respiratory syndrome coronavirus 2, UniProt P0DTD1). Briefly: biochemical. Type of test: biochemical. The arrangement: Replicate_1 / Replicate_2 / mean / mean (LOPAC_screen_w_protease): unit not given here. To be noted: for inhibition at 5 µM: 4 h.
Where [1] appears, read: sheet LOPAC_screen_w_protease, LOPAC1280 primary screen at 5 µM, with protease, mean of the two replicates, read-out: mean.
Setting [2] is: sheet LOPAC_screen_w_protease, LOPAC1280 primary screen at 5 µM, with protease, replicate 1, read-out: Replicate_1.
Setting [3] is: sheet LOPAC_screen_w_protease, LOPAC1280 primary screen at 5 µM, with protease, replicate 2, read-out: Replicate_2.
[4] abbreviates: sheet LOPAC_screen_w_protease, LOPAC1280 primary screen at 5 µM, with protease, replicate 1.
[5] abbreviates: sheet LOPAC_screen_w_protease, LOPAC1280 primary screen at 5 µM, with protease, replicate 2.
[6] abbreviates: LOPAC1280 primary screen with protease, 5 µM compound, replicate 1, read-out: Replicate_1 (LOPAC_screen_w_protease).
The mark [7] stands for this setting: LOPAC1280 primary screen with protease, 5 µM compound, replicate 2, read-out: Replicate_2 (LOPAC_screen_w_protease).
[8] abbreviates: LOPAC1280 primary screen with protease, 5 µM compound, mean of the two replicates.
The mark [9] stands for this setting: sheet LOPAC_screen_w_protease, primary screen with protease, mean of two replicates, read-out: mean.
Where [10] appears, read: sheet LOPAC_screen_w_protease, primary screen with protease, replicate 1, read-out: Replicate_1.
Setting [11] is: sheet LOPAC_screen_w_protease, primary screen with protease, replicate 2, read-out: Replicate_2.
[12] abbreviates: sheet LOPAC_screen_w_protease, primary screen of LOPAC1280 at 5 µM with protease, mean of the two replicates, read-out: mean.
Setting [13] is: sheet LOPAC_screen_w_protease, primary screen of LOPAC1280 at 5 µM with protease, replicate 1, read-out: Replicate_1.
Where [14] appears, read: sheet LOPAC_screen_w_protease, primary screen of LOPAC1280 at 5 µM with protease, replicate 2, read-out: Replicate_2.
[15] abbreviates: sheet LOPAC_screen_w_protease, primary screen with protease, mean of two replicates.
Where [16] appears, read: sheet LOPAC_screen_w_protease, primary screen with protease, replicate 1.

Structures can show the parent of a compound that is named as a salt. Where two headings read alike, the source gives them in different places.

For `NNCCc1ccccc1` [Phenelzine sulfate], the inhibition at 5 µM runs as follows: (read-out: Replicate_1) 0.173%; (read-out: Replicate_2) -1.72%; (read-out: mean) -0.773%.
For the compound `Nc1nc2ccc(Cl)cc2c2nc(-c3ccco3)nn12` [CGS-15943], the inhibition at 5 µM by setting is: (read-out: Replicate_1) 3.31%; (read-out: Replicate_2) 3.81%; (read-out: mean) 3.56%.
Consider `COc1ccc(Cl)cc1C(=O)NCCc1ccc(S(=O)(=O)NC(=O)NC2CCCCC2)cc1` [Glibenclamide], for which the inhibition at 5 µM under setting [1] worked out at 0.733%, the inhibition at 5 µM under setting [2] came out at 1.31% and the inhibition at 5 µM under setting [3] was 0.155%.
Turning to `O=C(O)CCC(=O)N1CCC[C@H]1C(=O)O` [N-Succinyl-L-proline], the mean (sheet LOPAC_screen_w_protease, LOPAC1280 primary screen at 5 µM, with protease, mean of two replicates) was -1.024. For the same compound, the Replicate_1 under setting [4] was determined as 1.826. Under setting [5], this compound gave a Replicate_2 of -3.873.
`O=C(O)C=Cc1c[nH]cn1` [4-Imidazoleacrylic acid]: under “sheet LOPAC_screen_w_protease, LOPAC1280 at 5 µM, mean of two replicates”, the mean stood at 0.9588. Also, the Replicate_1 (sheet LOPAC_screen_w_protease, LOPAC1280 at 5 µM, replicate 1) came to 1.559. The compound also yielded a Replicate_2 (sheet LOPAC_screen_w_protease, LOPAC1280 at 5 µM, replicate 2) of 0.3591.
For `NC(=NCc1ccccc1)NC(=O)c1nc(Cl)c(N)nc1N` [Benzamil hydrochloride], the inhibition at 5 µM runs as follows: under setting [6], 1.66%; under setting [7], 1.83%. The “mean (LOPAC_screen_w_protease)” value under setting [8] came to 1.743.
On to `C[C@@H]1O[C@@H](O[C@H]2C[C@@H](O)[C@]3(CO)[C@H]4[C@H](O)C[C@]5(C)[C@@H](C6=CC(=O)OC6)CC[C@]5(O)[C@@H]4CC[C@]3(O)C2)[C@H](O)[C@H](O)[C@H]1O` [Ouabain], for which the inhibition at 5 µM reads like this: (read-out: Replicate_1) 3.98%; (read-out: Replicate_2) 1.68%; (read-out: mean) 2.83%.
As for `NS(=O)(=O)c1cc2c(cc1Cl)NCNS2(=O)=O` [Hydrochlorothiazide], the inhibition at 5 µM by setting is: under setting [9], 2.22%; under setting [10], 3.63%; under setting [11], 0.799%.
For the compound `C[C@]12CC[C@@H](O)C[C@@H]1CC[C@@H]1[C@@H]2CC[C@]2(C)C(=O)CC[C@@H]12` [Androsterone], the inhibition at 5 µM by setting is: (read-out: Replicate_1) 1.73%; (read-out: Replicate_2) 3.02%; (read-out: mean) 2.38%.
With `Cn1c(=O)c2[nH]cnc2n(C)c1=O.Cn1c(=O)c2[nH]cnc2n(C)c1=O.NCCN` [Aminophylline ethylenediamine], the Replicate_1 was determined as 0.5539, the Replicate_2 is on record as -0.4553 and the mean is 0.04927.
Turning to `N#CC(C#N)=Cc1ccc(O)c(O)c1` [Tyrphostin 23], the inhibition at 5 µM runs as follows: (sheet LOPAC_screen_w_protease, primary screen with protease, compound at 5 µM, mean of two replicates, read-out: mean) 3.07%; (sheet LOPAC_screen_w_protease, primary screen with protease, compound at 5 µM, replicate 1, read-out: Replicate_1) 2.09%; (sheet LOPAC_screen_w_protease, primary screen with protease, compound at 5 µM, replicate 2, read-out: Replicate_2) 4.04%.
Take `Nc1c(S(=O)(=O)O)cc(Nc2ccc(Nc3nc(Cl)nc(Nc4cccc(S(=O)(=O)O)c4)n3)c(S(=O)(=O)O)c2)c2c1C(=O)c1ccccc1C2=O` [Reactive Blue 2]: the inhibition at 5 µM under setting [1] stood at 0.827%, the inhibition at 5 µM under setting [2] was -0.139% and the inhibition at 5 µM under setting [3] amounted to 1.79%.
As to `COc1cc(C(=O)OCCCN2CCCN(CCCOC(=O)c3cc(OC)c(OC)c(OC)c3)CC2)cc(OC)c1OC` [Dilazep hydrochloride], the inhibition at 5 µM under setting [12] was 3.29%, the inhibition at 5 µM under setting [13] came out at 2.23% and the inhibition at 5 µM under setting [14] was 4.35%.
For the compound `CN(C)CCOC(=O)COc1ccc(Cl)cc1` [Centrophenoxine hydrochloride], the inhibition at 5 µM (sheet LOPAC_screen_w_protease, LOPAC1280 at 5 µM, mean of two replicates, read-out: mean) was 1.27%; the inhibition at 5 µM (sheet LOPAC_screen_w_protease, LOPAC1280 at 5 µM, replicate 1, read-out: Replicate_1) came out at 1.82%; the inhibition at 5 µM (sheet LOPAC_screen_w_protease, LOPAC1280 at 5 µM, replicate 2, read-out: Replicate_2) was found to be 0.724%.
Take `CN1CCCC1c1cccnc1.Cc1ccc(C(=O)OC(C(=O)O)C(OC(=O)c2ccc(C)cc2)C(=O)O)cc1` (stereo not drawn) [(+)-Nicotine (+)-di-p-toluoyl tartrate]: the “Replicate_1 (LOPAC_screen_w_protease)” value came to 1.288, the “Replicate_2 (LOPAC_screen_w_protease)” value is recorded as 2.109 and the “mean (LOPAC_screen_w_protease)” value is listed as 1.698.
In the case of `CC(C)NCC(O)c1ccc(O)c(O)c1.Cl` (racemic) [(±)-Isoproterenol hydrochloride], the Replicate_1 (sheet LOPAC_screen_w_protease, primary screen with protease, compound at 5 µM, replicate 1) was 3.707. This compound yielded a Replicate_2 (sheet LOPAC_screen_w_protease, primary screen with protease, compound at 5 µM, replicate 2) of 1.7371.
With `N[C@@H]1CON=C1O` [D-Cycloserine], the inhibition at 5 µM under setting [6] stood at 2.63% and the inhibition at 5 µM under setting [7] came to 0.045%. Where the note is “LOPAC1280 primary screen with protease, 5 µM compound, mean of two replicates”, the “mean (LOPAC_screen_w_protease)” value is 1.34.
Regarding `CCCCC1(C2CCCC2)Cc2cc(OCC(=O)O)c(Cl)c(Cl)c2C1=O` (stereo in doubt) [R(+)-Butylindazone], under setting [15], the mean turned out to be 2.217. This compound displayed a Replicate_1 under setting [16] of 3.715. Where the note is “sheet LOPAC_screen_w_protease, primary screen with protease, replicate 2”, this compound yielded a Replicate_2 of 0.7192.
The compound `C=C(C)[C@H]1CC=C(C(=O)O)CC1` [(-)-Perillic acid] came in with a mean (sheet LOPAC_screen_w_protease, primary screen with protease, 5 µM, mean of two replicates) of -0.8057. This compound also returned a Replicate_1 (sheet LOPAC_screen_w_protease, primary screen with protease, 5 µM, replicate 1) of 1.127. Where the note is “sheet LOPAC_screen_w_protease, primary screen with protease, 5 µM, replicate 2”, the Replicate_2 is given as -2.738.
For `CC[N+](C)(C)c1cccc(O)c1` [Edrophonium chloride], the inhibition at 5 µM is, setting by setting: under setting [9], 2.25%; under setting [10], 5.19%; under setting [11], -0.704%.
Regarding `COc1cccc(-c2cc(=O)c3ccccc3o2)c1N` [PD 98,059], the Replicate_1 was 3.541, the Replicate_2 amounted to 1.402 and the mean was determined as 2.471.
Consider `C[N+]1(C)[C@@H]2CC[C@H]1C[C@@H](OC(=O)C(CO)c1ccccc1)C2` (stereo partly shown) [Atropine methyl bromide], for which the inhibition at 5 µM under setting [6] stood at 2.3% and the inhibition at 5 µM under setting [7] came to 1.25%. Further, the “mean (LOPAC_screen_w_protease)” value under setting [8] was 1.779.
Regarding `C[C@@H]1C(=O)NC2=Nc3cccc(Cl)c3CN21` [Quazinone], the inhibition at 5 µM reads like this: (sheet LOPAC_screen_w_protease, LOPAC1280 primary screen with protease, 5 µM compound, mean of the two replicates, read-out: mean) 4.1%; (sheet LOPAC_screen_w_protease, LOPAC1280 primary screen with protease, 5 µM compound, replicate 1, read-out: Replicate_1) 4.2%; (sheet LOPAC_screen_w_protease, LOPAC1280 primary screen with protease, 5 µM compound, replicate 2, read-out: Replicate_2) 4%.
On to `COc1ccc2c(c1)c(CC(=O)N1CCOCC1)c(C)n2C(=O)c1ccc(Cl)cc1` [Indomethacin morpholinylamide], for which the inhibition at 5 µM reads like this: under setting [9], 2.27%; under setting [10], 2.02%; under setting [11], 2.53%.
Take `CC(=O)O[C@H]1C[C@@H]2CC[C@@H]3[C@H](CC[C@@]4(C)[C@H]3C[C@H]([N+]3(C)CCCCC3)[C@@H]4OC(C)=O)[C@@]2(C)C[C@@H]1[N+]1(C)CCCCC1` [Pancuronium bromide]: the inhibition at 5 µM under setting [12] was 3.86%, the inhibition at 5 µM under setting [13] is 2.32% and the inhibition at 5 µM under setting [14] was 5.41%.
On to `N[C@@H](Cc1ccc(O)c(O)c1)C(=O)O` [L-3,4-Dihydroxyphenylalanine], for which the mean (sheet LOPAC_screen_w_protease, LOPAC1280 primary screen with protease, 5 µM compound, mean of the two replicates) is on record as 4.21. This compound displayed a Replicate_1 (sheet LOPAC_screen_w_protease, LOPAC1280 primary screen with protease, 5 µM compound, replicate 1) of 5.679. Further, for the setting “sheet LOPAC_screen_w_protease, LOPAC1280 primary screen with protease, 5 µM compound, replicate 2”, the Replicate_2 came to 2.742.
As for `O=C(CCc1ccc(O)cc1)c1c(O)cc(O)cc1O` [Phloretin], the inhibition at 5 µM is 8.32% (read-out: Replicate_1 (LOPAC screen with protease)), 5.55% (read-out: Replicate_2 (LOPAC screen with protease)) and 6.94% (read-out: mean (LOPAC screen with protease)).
Take `COC(=O)[C@H](NC(=O)c1cc(-c2ccccc2)nc2ccccc12)c1ccccc1` [SB 218795]: the mean (sheet LOPAC_screen_w_protease, LOPAC1280 primary screen at 5 µM, with protease, mean of the two replicates) is listed as 0.7338. The compound further yielded a Replicate_1 under setting [4] of 2.781. Under setting [5], the Replicate_2 is reported as -1.313.
Regarding `CN1CCN(CCCN2c3ccccc3Sc3ccc(Cl)cc32)CC1` [Prochlorperazine dimaleate], the inhibition at 5 µM reads like this: under setting [9], 2.43%; under setting [10], 4.42%; under setting [11], 0.439%.
Under setting [15], S(-)-DS 121 hydrochloride came in with a mean of 2.32. The same compound had a Replicate_1 under setting [16] of 2.977.
